Reference: patent US12667572B2, “Tricyclic compounds useful in the treatment of cancer, autoimmune and inflammatory disorders” (SCHRÖDINGER, INC., priority 2021, dated 2026)

What was measured:
[1] = target: T1, full-length MALT1 protein His-MALT1(1-824) (Homo sapiens, UniProt Q9UDY8); test: MALT1 protease assay, Assay 1 (2 nM MALT1, Ac-LRSR-AMC substrate); type: biochemical; details: 2 nM MALT1, 50 μM Ac-LRSR-AMC, 2 h pre-incubation, 8 hr incubation at RT
T1 construct: full-length MALT1 protein His-MALT1(1-824); His (N); made in house; host or cells: baculovirus-infected insect cells
T1 sequence (Q9UDY8 1-824): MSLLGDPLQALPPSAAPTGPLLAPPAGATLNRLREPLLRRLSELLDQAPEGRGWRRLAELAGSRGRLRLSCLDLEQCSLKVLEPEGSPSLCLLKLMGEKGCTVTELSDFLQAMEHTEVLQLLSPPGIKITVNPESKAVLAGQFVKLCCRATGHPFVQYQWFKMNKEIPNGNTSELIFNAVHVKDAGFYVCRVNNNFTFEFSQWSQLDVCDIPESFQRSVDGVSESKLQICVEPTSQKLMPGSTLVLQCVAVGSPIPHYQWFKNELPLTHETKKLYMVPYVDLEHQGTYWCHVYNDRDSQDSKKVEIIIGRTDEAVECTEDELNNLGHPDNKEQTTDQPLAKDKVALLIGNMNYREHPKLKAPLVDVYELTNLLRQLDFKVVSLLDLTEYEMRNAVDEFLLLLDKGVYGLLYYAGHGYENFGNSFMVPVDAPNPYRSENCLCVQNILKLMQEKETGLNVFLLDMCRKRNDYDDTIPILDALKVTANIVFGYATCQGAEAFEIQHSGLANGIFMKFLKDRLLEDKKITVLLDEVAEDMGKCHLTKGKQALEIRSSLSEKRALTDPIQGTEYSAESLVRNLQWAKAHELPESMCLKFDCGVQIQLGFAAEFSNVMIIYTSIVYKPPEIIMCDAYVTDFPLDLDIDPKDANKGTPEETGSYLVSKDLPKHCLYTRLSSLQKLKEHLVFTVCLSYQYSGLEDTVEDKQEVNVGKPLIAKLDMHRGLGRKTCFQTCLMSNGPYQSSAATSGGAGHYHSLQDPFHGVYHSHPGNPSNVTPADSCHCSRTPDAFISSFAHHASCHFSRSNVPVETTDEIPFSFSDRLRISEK
Procedure: MALT1 protease activity was assessed in an in vitro assay using a tetrapeptide as substrate and full-length MALT1 protein His-MALT1(1-824) purified from baculovirus-infected insect cells. The tetrapeptide substrate is Ac-LRSR-AMC (SM Biochemicals) with Km measured at around 100 μM.
The final assay buffer includes 1 nM (Assay 2) or 2 nM (Assay 1) of MALT1 full-length protein, 50 μM Ac-LRSR-AMC substrate, 50 mM Tris pH 7.5, 600 mM Sodium Citrate, 1 mM DTT, 1 mM EDTA, and 0.05% BSA in 384-well plate format using black microtiter square well plates (Optiplate 384-F, Perkin Elmer).
Test compounds were dissolved in 100% DMSO at stock of 10 mM, with final DMSO concentration 0.1%. Test compounds were pre-incubated with MALT1 protein for 2 h at room temperature. Substrate was added after the pre-incubation and fluorescence signal was measured using Envision at excitation 355 nm and emission 460 nm after 8 hr incubation at RT. Increase in the assay signal was linear over this period and proportional with increase in the enzyme content.
The fluorescence units were transformed to percentage of remaining activity by using the high control (HC, median of fluorescence signal from wells containing MALT1 protein, substrate, and DMSO) and low control (LC, median of fluorescence signal from wells with substrate only) with the formula below: […]
IC50 and Hill coefficients were obtained using Graph Pad Prism (Graph Pad software, Inc, USA) with non-linear regression analysis.

[2] = target: T1, full-length MALT1 protein His-MALT1(1-824); test: MALT1 protease assay, Assay 2 (1 nM MALT1, Ac-LRSR-AMC substrate); type: biochemical; details: 1 nM MALT1, 50 μM Ac-LRSR-AMC, 2 h pre-incubation, 8 hr incubation at RT
Outline: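 Compounds (0.1% DMSO final) sat 2 h at RT with insect-cell-expressed His-MALT1(1-824), in 50 mM Tris pH 7.5, 600 mM sodium citrate, 1 mM DTT, 1 mM EDTA, 0.05% BSA. Cleavage of 50 μM Ac-LRSR-AMC (Km ~100 μM) ran 8 h at RT, read as AMC fluorescence. IC50 and Hill coefficient fitted to % remaining activity.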

IC50 [1] [nM] | IC50 [2] [nM] | Structure (SMILES)
100 to 1000 |  | CC1(C)c2c(cnc3cc(Cl)nn23)C(C(=O)Nc2cnc(-n3nccn3)c(Cl)c2)C1O (racemic) [Example 19, 2-chloro-N-(5-chloro-6-(2H-1,2,3-triazol-2-yl)pyridin-3-yl)-7-hydroxy-8,8-dimethyl-7,8-dihydro-6H-cyclopenta[e]pyrazolo[1,5-a]pyrimidine-6-carboxamide]
≥ 1000 |  | Cn1nc(-c2ncc(NC(=O)C3CC(C)(C)c4c3cnc3cc(Cl)nn43)cc2Cl)cc1O (centres unmarked) [Example 42, 2-chloro-N-(5-chloro-6-(5-hydroxy-1-methyl-1H-pyrazol-3-yl)pyridin-3-yl)-8,8-dimethyl-7,8-dihydro-6H-cyclopenta[e]pyrazolo[1,5-a]pyrimidine-6-carboxamide]
100 to 1000 |  | CC1(C)C[C@H](C(=O)Nc2cnc([C@@H]3CCCO3)c(Cl)c2)c2cnc3cc(Cl)nn3c21 (single isomer, unassigned) [Example 28, 2-chloro-N-(5-chloro-6-(tetrahydrofuran-2-yl)pyridin-3-yl)-8,8-dimethyl-7,8-dihydro-6H-cyclopenta[e]pyrazolo[1,5-a]pyrimidine-6-carboxamide]
≥ 1000 |  | CCc1cc2ncc3c(n2n1)C(C)(C)C[C@H]3C(=O)Nc1cnc(-n2nccn2)c(Cl)c1 (single isomer, unassigned) [Example 20, N-(5-chloro-6-(2H-1,2,3-triazol-2-yl)pyridin-3-yl)-2-ethyl-8,8-dimethyl-7,8-dihydro-6H-cyclopenta[e]pyrazolo[1,5-a]pyrimidine-6-carboxamide]
 | 10 to 100 | CC1(C)CC(C(=O)Nc2cnc(-n3nccn3)c(C#N)c2)c2cnn3cc(C(F)F)nc3c21 (single isomer, unassigned) [Example 197, N-(5-cyano-6-(2H-1,2,3-triazol-2-yl)pyridin-3-yl)-2-(difluoromethyl)-9,9-dimethyl-8,9-dihydro-7H-cyclopenta[d]imidazo[1,2-b]pyridazine-7-carboxamide]
 | 10 to 100 | Cc1cc2c(F)cc3c(n2n1)C(C)(C)CC3C(=O)Nc1cnc(-n2nccn2)c(Cl)c1 (centres unmarked) [Example 171, N-(5-chloro-6-(2H-1,2,3-triazol-2-yl)pyridin-3-yl)-4-fluoro-2,8,8-trimethyl-7,8-dihydro-6H-cyclopenta[e]pyrazolo[1,5-a]pyridine-6-carboxamide]
 | 100 to 1000 | C[C@@]1(C(F)(F)F)C[C@@H](C(=O)Nc2cnc(-n3nccn3)c(Cl)c2)c2cnc3cc(F)nn3c21 (single isomer, unassigned) [Example 186]
 | ≥ 1000 | Cc1cc2cc(F)c3c(n2n1)C(C)(C)C[C@H]3C(=O)Nc1cnc(-n2nccn2)c(Cl)c1 (single isomer, unassigned) [Example 156, N-(5-chloro-6-(2H-1,2,3-triazol-2-yl)pyridin-3-yl)-5-fluoro-2,8,8-trimethyl-7,8-dihydro-6H-cyclopenta[e]pyrazolo[1,5-a]pyridine-6-carboxamide]
 | 10 to 100 | C[C@]1(C(F)(F)F)C[C@@H](C(=O)Nc2cnc(-n3nccn3)c(C(F)(F)F)c2)c2cnc3cc(Cl)nn3c21 (single isomer, unassigned) [Example 55, N-(6-(2H-1,2,3-triazol-2-yl)-5˜(trifluoromethyl)pyridin-3-yl)-2-chloro-8-methyl-8-(trifluoromethyl)-7,8-dihydro-6H-cyclopenta[e]pyrazolo[1,5-a]pyrimidine-6-carboxamide]
 | 100 to 1000 | N#Cc1cc(NC(=O)[C@@H]2CC3(CCC3)c3c2cnc2cc(F)nn32)cnc1OC(F)F (single isomer, unassigned) [Example 102, N-(5-cyano-6-(difluoromethoxy)pyridin-3-yl)-2′-fluoro-6′,7′-dihydrospiro[cyclobutane-1,8′-cyclopenta[e]pyrazolo[1,5-a]pyrimidine]-6′-carboxamide]
 | < 10 | C[C@@]1(C(F)(F)F)C[C@@H](C(=O)Nc2cnc(-n3nccn3)c(Cl)c2)c2cnc3cc(F)nn3c21 (single isomer, unassigned) [Example 185]
 | 10 to 100 | CC1(C)C[C@H](C(=O)Nc2cnc(C(=O)NC3CC3)c(C(F)F)c2)c2cnc3cc(Cl)nn3c21 (single isomer, unassigned) [Example 173]
 | 10 to 100 | O=C(Nc1cnc(-n2nccn2)c(C(F)(F)F)c1)[C@H]1C[C@]2(CCO2)c2c1cnc1cc(Cl)nn21 (racemic) [Example 117, (cis)-N-(6-(2H-1,2,3-triazol-2-yl)-5˜(trifluoromethyl)pyridin-3-yl)-2-chloro-6,7-dihydrospiro[cyclopenta[e]pyrazolo[1,5-a]pyrimidine-8,2′-oxetane]-6-carboxamide]
 | ≥ 1000 | CC1(C)C[C@@H](C(=O)Nc2ccnc(C(F)(F)F)c2)c2cnc3cc(C(F)F)nn3c21 (single isomer, unassigned) [Example 98, 2-(difluoromethyl)-8,8-dimethyl-N-(2-(trifluoromethyl)pyridin-4-yl)-7,8-dihydro-6H-cyclopenta[e]pyrazolo[1,5-a]pyrimidine-6-carboxamide]
 | 10 to 100 | CC1(C)CC(C(=O)Nc2cc(C(F)F)c(-c3cnco3)c(=O)[nH]2)c2cnc3cc(Cl)nn3c21 (centres unmarked) [Example 59, 2-chloro-N-(4-(difluoromethyl)-5˜(oxazol-5-yl)-6-oxo-1,6-dihydropyridin-2-yl)-8,8-dimethyl-7,8-dihydro-6H-cyclopenta[e]pyrazolo[1,5-a]pyrimidine-6-carboxamide]
 | 10 to 100 | CC1(C)CC(C(=O)Nc2cnc(N=S(C)(C)=O)c(Cl)c2)c2cnc3cc(F)nn3c21 (single isomer, unassigned) [Example 132, N-(5-chloro-6-((dimethyl(oxo)-λ^6-sulfaneylidene)amino)pyridin-3-yl)-2-fluoro-8,8-dimethyl-7,8-dihydro-6H-cyclopenta[e]pyrazolo[1,5-a]pyrimidine-6-carboxamide]
 | ≥ 1000 | CC1(C)C[C@@H](C(=O)Nc2cnc(OC3CC3)c(C#N)c2)c2cnc3cc(F)nn3c21 (single isomer, unassigned) [Example 80, N-(5-cyano-6-cyclopropoxypyridin-3-yl)-2-fluoro-8,8-dimethyl-7,8-dihydro-6H-cyclopenta[e]pyrazolo[1,5-a]pyrimidine-6-carboxamide]
 | ≥ 1000 | O=C(Nc1cnc(C(O)C(F)F)c(Cl)c1)C1CC2(CCC2)c2c1cnc1cc(F)nn21 (single isomer, unassigned) [Example 133, N-(5-chloro-6-(2,2-difluoro-1-hydroxyethyl)pyridin-3-yl)-2′-fluoro-6′,7′-dihydrospiro[cyclobutane-1,8′-cyclopenta[e]pyrazolo[1,5-a]pyrimidine]-6′-carboxamide]
 | 100 to 1000 | CC1(C)CC(C(=O)Nc2cnc(C(=O)NC3CC3)c(C(F)(F)F)c2)c2cnc3cc(Cl)nn3c21 (centres unmarked) [Example 112, 2-chloro-N-(6-(cyclopropylcarbamoyl)-5˜(trifluoromethyl)pyridin-3-yl)-8,8-dimethyl-7,8-dihydro-6H-cyclopenta[e]pyrazolo[1,5-a]pyrimidine-6-carboxamide]
 | 10 to 100 | CC1(C)CC(C(=O)Nc2cnc(OC(F)F)c(C#N)c2)c2cnc3cc(C(F)F)nn3c21 (single isomer, unassigned) [Example 126, N-(5-cyano-6-(difluoromethoxy)pyridin-3-yl)-2-(difluoromethyl)-8,8-dimethyl-7,8-dihydro-6H-cyclopenta[e]pyrazolo[1,5-a]pyrimidine-6-carboxamide]
